Source: publication PMC10035947, “Development of novel anilinoquinazoline-based carboxylic acids as non-classical carbonic anhydrase IX and XII inhibitors” (Journal of Enzyme Inhibition and Medicinal Chemistry, 2023)
pKi: −log10 of the molar value.

Columns and labels:
MDA-MB-468 = assay: NCI SRB assay; format: cell-based, human
U251 = assay: NCI SRB assay; format: cell-based, human
TK-10 = assay: NCI SRB assay; format: cell-based, human; conditions: TK-10, 1.00E-5 Molar
SNB-75 = assay: NCI SRB assay; format: cell-based, human
SK-MEL-5 = assay: NCI SRB assay; format: cell-based, human
HT29 = assay: NCI SRB assay; format: cell-based, human
OVCAR-3 = assay: NCI SRB assay; format: cell-based, human
HCC-2998 = assay: NCI SRB assay; format: cell-based, human
COLO 205 = assay: NCI SRB assay; format: cell-based, human
NCI-H460 = assay: NCI SRB assay; format: cell-based, human
M14 = assay: NCI SRB assay; format: cell-based, human
PC-3 = assay: NCI SRB assay; format: cell-based, human
OVCAR-8 = assay: NCI SRB assay; format: cell-based, human
SN12C = assay: NCI SRB assay; format: cell-based, human; conditions: SN12C, 1.00E-5 Molar
[1] = system: 59 human cancer cell lines representing nine tumour subpanels; assay: NCI SRB assay, panel and subpanel summaries; conditions: all cell lines
HS 578 T = assay: NCI SRB assay; format: cell-based, human
OVCAR-5 = assay: NCI SRB assay; format: cell-based, human
HCT-116 = assay: NCI SRB assay; format: cell-based, human
786-0 = assay: NCI SRB assay; format: cell-based, human
hCA II = target: T1, hCA II (Homo sapiens, UniProt P00918); assay: stopped flow CO2 hydrase assay; format: biochemical; conditions: mean from 3 assays
T1 construct: made in house
Outline: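 Stopped-flow CO2 hydration with phenol red (0.2 mM) at 557 nm in 20 mM Hepes pH 7.5, 20 mM Na2SO4, CO2 1.7–17 mM, recombinant enzyme. Inhibitor preincubated 15 min at room temperature; uncatalyzed rate subtracted, Ki via Cheng-Prusoff, mean of ≥3 determinations.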

MALME-3M = assay: NCI SRB assay; format: cell-based, human
SW-620 = assay: NCI SRB assay; format: cell-based, human
NCI-H522 = assay: NCI SRB assay; format: cell-based, human
KM12 = assay: NCI SRB assay; format: cell-based, human
HOP-62 = assay: NCI SRB assay; format: cell-based, human
MDA-MB-435 = assay: NCI SRB assay; format: cell-based

COc1ccc(-c2nc(Nc3ccccc3C(=O)O)c3ccccc3n2)cc1 [6c, 2-((2–(4-Methoxyphenyl)quinazolin-4-yl)amino)benzoic acid] was tested, and the GI% (MDA-MB-468; MDA-MB-468, 10 μM) was 57%, the “Growth Percent” value (MDA-MB-468; MDA-MB-468, 1.00E-5 Molar) was 42.97% and the GI% (U251; U251, 10 μM) was 66%. The “Growth Percent” value (U251; U251, 1.00E-5 Molar) was 34.16%, the “Growth Percent” value (TK-10) was 74.99% and the GI% (SNB-75; SNB-75, 10 μM) was 68%. For the same compound, the “Growth Percent” value (SNB-75; SNB-75, 1.00E-5 Molar) was 32.48%, the GI% (SK-MEL-5; SK-MEL-5, 10 μM) was 70% and the “Growth Percent” value (SK-MEL-5; SK-MEL-5, 1.00E-5 Molar) was 30.49%. For the same compound, the GI% (HT29; HT29, 10 μM) was 37%, the “Growth Percent” value (HT29; HT29, 1.00E-5 Molar) was 63.13% and the GI% (OVCAR-3; OVCAR-3, 10 μM) was 54%. For the same compound, the “Growth Percent” value (OVCAR-3; OVCAR-3, 1.00E-5 Molar) was 43.93%, the GI% (HCC-2998; HCC-2998, 10 μM) was 38% and the “Growth Percent” value (HCC-2998; HCC-2998, 1.00E-5 Molar) was 62.09%. The GI% (COLO 205; COLO 205, 10 μM) was “– (Only GI% higher than 20% are shown)”, the “Growth Percent” value (COLO 205; COLO 205, 1.00E-5 Molar) was 81.88% and the GI% (NCI-H460; NCI-H460, 10 μM) was 89%. For the same compound, the “Growth Percent” value (NCI-H460; NCI-H460, 1.00E-5 Molar) was 11.57%, the GI% (M14; M14, 10 μM) was 48% and the “Growth Percent” value (M14; M14, 1.00E-5 Molar) was 52.09%. For the same compound, the GI% (PC-3; PC-3, 10 μM) was 60%, the “Growth Percent” value (PC-3; PC-3, 1.00E-5 Molar) was 40.04% and the GI% (OVCAR-8; OVCAR-8, 10 μM) was 40%. The “Growth Percent” value (OVCAR-8; OVCAR-8, 1.00E-5 Molar) was 60.14%, the “Growth Percent” value (SN12C) was 47.71% and the “Mean GI %” value ([1]; 10 μM) was 52%. The “Mean Growth Percent” value ([1]; 1.00E-5 Molar) was 48.18%, the GI% (HS 578 T; HS 578 T, 10 μM) was 72% and the “Growth Percent” value (HS 578 T; HS 578T, 1.00E-5 Molar) was 28.05%. For the same compound, the GI% (OVCAR-5; OVCAR-5, 10 μM) was 27%, the “Growth Percent” value (OVCAR-5; OVCAR-5, 1.00E-5 Molar) was 73.07% and the GI% (HCT-116; HCT-116, 10 μM) was 62%. The “Growth Percent” value (HCT-116; HCT-116, 1.00E-5 Molar) was 37.54%, the GI% (786-0; 786-0, 10 μM) was 48% and the “Growth Percent” value (786-0; 786-0, 1.00E-5 Molar) was 51.90%. For the same compound, the pKi (hCA II) was 4.08, the GI% (MALME-3M; 10 μM) was 31% and the “Growth Percent” value (MALME-3M; 1.00E-5 Molar) was 68.60%. The GI% (SW-620; SW-620, 10 μM) was 61%, the “Growth Percent” value (SW-620; SW-620, 1.00E-5 Molar) was 39.05% and the GI% (NCI-H522; NCI-H522, 10 μM) was 63%. For the same compound, the “Growth Percent” value (NCI-H522; NCI-H522, 1.00E-5 Molar) was 37.29%, the GI% (KM12; KM12, 10 μM) was 64% and the “Growth Percent” value (KM12; KM12, 1.00E-5 Molar) was 35.66%. For the same compound, the GI% (HOP-62; HOP-62, 10 μM) was 49%, the “Growth Percent” value (HOP-62; HOP-62, 1.00E-5 Molar) was 51.05% and the GI% (MDA-MB-435; MDA-MB-435, 10 μM) was 44%. For the same compound, the “Growth Percent” value (MDA-MB-435; MDA-MB-435, 1.00E-5 Molar) was 56.03%.
